This note sets out measurements from ChEMBL document CHEMBL1130376, “Effects of taxoids from Taxus cuspidata on microtubule depolymerization and vincristine accumulation in MDR cells” (Bioorg Med Chem Lett, 1997).

Converted amounts (≈) assume the structure as drawn. Bounds are passed on as bounds.

One test deals with L1210. Nature of the test: Cytotoxicity against murine leukemia L1210 cells. The following applies: Mus musculus, L1210; read-out: IC50. Type of test: functional, cell-based, Mus musculus.
Test [1] in a line: Cytotoxicity against human epidermoid carcinoma KB cells. It counts as functional, cell-based.
Test [2] can be described thus: Vincristine (VCR) accumulation in multidrug resistant human ovarian cancer 2780 AD cells at a concentration 1 ug/mL. Type of test: functional.
A short description of test [3]: Vincristine (VCR) accumulation in multidrug resistant human ovarian cancer 2780 AD cells at a concentration 10 ug/mL. Type of test: functional.

A word on the IC50: it is the midpoint of a concentration-inhibition curve. With `C=C1[C@@H](OC(=O)/C=C/c2ccccc2)C[C@H](OC(C)=O)[C@@]2(C)[C@@H](OC(C)=O)[C@H](OC(C)=O)[C@@]3(O)C(C)=C(OC(C)=O)C[C@@H]([C@@H](OC(C)=O)[C@H]12)C3(C)C`, the IC50 in the test on L1210 turned out to be 3 µg/mL (≈ 4.14 µM); in test [1], 1.8 µg/mL (≈ 2.48 µM). The “vincristine accumulation (% of control)” value in test [2] was 133%; in test [3], 325%.
In the case of `C=C1[C@@H](OC(=O)CC(c2ccccc2)N(C)C)CC[C@@]2(C)[C@@H](OC(C)=O)[C@H](OC(C)=O)[C@@]34[C@H](C)C(=O)C[C@@H]([C@@H](OC(C)=O)C132)C4(C)C` (stereo not given in full), the IC50 is above 10 µg/mL in the test with L1210 and 1.6 µg/mL (≈ 2.45 µM) in test [1]. The figures for the “vincristine accumulation (% of control)” value in test [2] and in test [3] were 174% and 567%, respectively.
With `C=C1[C@@H](OC(=O)CC(c2ccccc2)N(C)C)CC[C@]2(C)[C@@H]1C[C@@H]1C[C@H](OC(C)=O)C(C)=C([C@@H](OC(C)=O)[C@@H]2OC(C)=O)C1(C)C` (stereo not given in full), the IC50 (in the test with L1210; in test [1]) was above 10 µg/mL each time. Also, the “vincristine accumulation (% of control)” value came out at 250% in test [2] and 882% in test [3].
Regarding `CC(=O)O[C@H]1C[C@H]2OC[C@@]2(OC(C)=O)[C@H]2[C@H](OC(C)=O)[C@]3(C(C)(C)O)C[C@H](OC(=O)/C=C/c4ccccc4)C(C)=C3[C@@H](OC(=O)c3ccccc3)[C@H](OC(C)=O)[C@]12C` [TAXCHININ B], the IC50 in the test on L1210 is 3.8 µg/mL (≈ 4.73 µM); in test [1], above 10 µg/mL. The figures for the “vincristine accumulation (% of control)” value in test [2] and in test [3] were 219% and 639%, respectively.
On to `C=C1[C@@H](OC(=O)/C=C/c2ccccc2)C[C@H](OC(C)=O)[C@]2(C)[C@@H]1C[C@@H]1C[C@H](OC(C)=O)C(C)=C([C@@H](OC(C)=O)[C@@H]2OC(C)=O)C1(C)C`, for which the IC50 in the test on L1210 is 4.9 µg/mL (≈ 7.53 µM); in test [1], above 10 µg/mL. The “vincristine accumulation (% of control)” value in test [2] is reported as 266%; in test [3], 798%.
Turning to `CC(=O)O[C@H]1[C@@H]2[C@H](CO)[C@@H](OC(C)=O)C[C@H](OC(C)=O)[C@@]2(C)[C@@H](OC(C)=O)[C@H](OC(C)=O)C2=C(C)[C@@H](OC(C)=O)C[C@@H]1C2(C)C`, the IC50 with L1210 is 10 µg/mL (≈ 15.7 µM); in test [1], 4.5 µg/mL (≈ 7.05 µM). In addition, the “vincristine accumulation (% of control)” value in test [2] is on record as 177%; in test [3], 264%.
As to `C=C1[C@@H](O)CC[C@@]2(C)[C@@H](OC(C)=O)[C@H](OC(C)=O)C3=C(C)C(=O)C[C@@H]([C@@H](O)[C@H]12)C3(C)C`, the IC50 (in the test on L1210; in test [1]) was above 10 µg/mL throughout. Also, the “vincristine accumulation (% of control)” value in test [2] amounted to 139%; in test [3], 271%.
`C=C1[C@@H](O)C[C@H](OC(C)=O)[C@@]2(C)[C@@H](OC(C)=O)[C@H](OC(C)=O)[C@]3(O)[C@@]4(C)CO[C@]3(C)C(=O)C[C@H]4[C@@H](OC(C)=O)[C@H]12`: the IC50 (with L1210; in test [1]) was above 10 µg/mL in each case. Also, the “vincristine accumulation (% of control)” value was 225% in test [2] and 213% in test [3].
`C=C1[C@@H](OC(=O)CC(c2ccccc2)N(C)C)CC[C@@]2(C)[C@@H](OC(C)=O)[C@H](OC(C)=O)C3=C(C)C(=O)C[C@@](O)([C@@H](OC(C)=O)[C@H]12)C3(C)C` (stereo not given in full): the IC50 in the test with L1210 was 2.7 µg/mL (≈ 4.04 µM); in test [1], above 10 µg/mL. The “vincristine accumulation (% of control)” value is 175% in test [2] and 466% in test [3].
`CC(=O)O[C@H]1C(=O)[C@@]2(C)[C@H]([C@H](OC(=O)c3ccccc3)[C@]3(O)C[C@H](OC(=O)[C@H](O)C(NC(=O)C4CCC4)c4ccccc4)C(C)=C1C3(C)C)[C@]1(OC(C)=O)CO[C@@H]1C[C@@H]2O` (stereo not given in full): the IC50 with L1210 worked out at 0.25 µg/mL (≈ 0.301 µM); in test [1], 0.086 µg/mL (≈ 0.103 µM). Also, the “vincristine accumulation (% of control)” value in test [2] was 88%; in test [3] it was 93%.
For the compound `CC(=O)O[C@@]12CO[C@H]1C[C@H](O)[C@@]1(C)C(=O)[C@H](O)C3=C(C)[C@@H](O)C[C@@](O)([C@@H](OC(=O)c4ccccc4)[C@H]21)C3(C)C`, the IC50 (with L1210; in test [1]) was above 10 µg/mL throughout. The “vincristine accumulation (% of control)” value is 153% in test [2] and 271% in test [3].
Turning to `C=C1[C@@H](OC(=O)/C=C/c2ccccc2)C[C@H](OC(C)=O)[C@]2(C)[C@@H]1C[C@]1(C(C)(C)O)C[C@H](OC(C)=O)C(C)=C1[C@@H](OC(=O)c1ccccc1)[C@@H]2OC(C)=O` [TAXUSPINE A], the IC50 is 4.2 µg/mL (≈ 5.76 µM) with L1210 and above 10 µg/mL in test [1]. For the same compound, the “vincristine accumulation (% of control)” value in test [2] was found to be 142%; in test [3] it was 246%.
As for `C/C=C(\C)C(=O)O[C@@H]1C2=C(C)[C@@H](O)C[C@@]2(C(C)(C)O)[C@@H](OC(C)=O)[C@@H]2[C@]3(OC(C)=O)CO[C@@H]3C[C@H](OC(C)=O)[C@@]2(C)[C@H]1OC(C)=O`, the values for the IC50 (in the test on L1210; in test [1]) were 4 µg/mL (≈ 6.15 µM) and 0.3 µg/mL (≈ 0.461 µM), respectively. In addition, the “vincristine accumulation (% of control)” value in test [2] stood at 145%; in test [3] it was 206%.
The like results for `C=C1[C@@H](O)C[C@H](OC(C)=O)[C@@]2(COC(=O)c3ccccc3)[C@@H](OC(C)=O)[C@H](OC(C)=O)[C@]3(O)[C@@]4(C)CO[C@]3(C)C(=O)C[C@H]4[C@@H](OC(C)=O)[C@H]12` [TAXININ M] were, in that order, above 10 µg/mL, 9.4 µg/mL (≈ 13.7 µM), 115% and 169%.
Regarding `C=C1[C@@H](OC(=O)/C=C/c2ccccc2)C[C@H](OC(C)=O)[C@@]2(C)[C@@H](OC(C)=O)[C@H](OC(C)=O)[C@]3(O)[C@@]4(C)CO[C@]3(C)C(=O)C[C@H]4[C@@H](OC(C)=O)[C@H]12` [TAXAGIFINE], the results for the IC50 (in the test on L1210; in test [1]) were 1.3 µg/mL (≈ 1.87 µM) and 0.86 µg/mL (≈ 1.23 µM), respectively. The “vincristine accumulation (% of control)” value in test [2] is 194%; in test [3], 242%.
For `CC(=O)O[C@@]12CO[C@@H]1C[C@@H](O)[C@@]1(C)C(=O)[C@H](O)C3=C(C)[C@@H](OC(=O)[C@H](O)C(NC(=O)c4ccccc4)c4ccccc4)C[C@@](O)([C@@H](OC(=O)c4ccccc4)[C@H]21)C3(C)C` (stereo not given in full), the IC50 is 0.71 µg/mL (≈ 0.875 µM) in the test on L1210 and 0.013 µg/mL (≈ 0.016 µM) in test [1]. For the same compound, the “vincristine accumulation (% of control)” value in test [2] was determined as 192%; in test [3], 218%.
For the compound `CC(=O)O[C@H]1C[C@H]2OC[C@@]2(OC(C)=O)[C@H]2[C@H](OC(C)=O)[C@]3(C(C)(C)O)C[C@H](O)C(C)=C3[C@@H](OC(=O)c3ccccc3)[C@H](OC(C)=O)[C@]12C`, the IC50 (in the test with L1210; in test [1]) was above 10 µg/mL each time. The “vincristine accumulation (% of control)” value is listed as 171% in test [2] and 240% in test [3].
`C=C1[C@@H](OC(=O)/C=C/c2ccccc2)CC[C@@]2(C)[C@@H](OC(C)=O)[C@H](OC(C)=O)[C@@]34[C@H](C)C(=O)C[C@@H]([C@@H](OC(C)=O)C132)C4(C)C` (stereo not given in full): the values for the IC50 (in the test with L1210; in test [1]) were 5.8 µg/mL (≈ 9.56 µM) and above 10 µg/mL, respectively. Besides, the “vincristine accumulation (% of control)” value is 246% in test [2] and 768% in test [3].
On to `CC(=O)OC[C@H]1[C@H]2[C@H](O)[C@]3(O)C[C@H](OC(C)=O)C(C)=C([C@@H](OC(C)=O)[C@H](OC(C)=O)[C@]2(C)[C@@H](OC(C)=O)C[C@@H]1OC(C)=O)C3(C)C`, for which the half-inhibitory concentration (IC50) with L1210 was 4.6 µg/mL (≈ 7.03 µM); in test [1] it was above 10 µg/mL. For the same compound, the results for the “vincristine accumulation (% of control)” value in test [2] and in test [3] were 147% and 208%, respectively.
Turning to `C=C1[C@@H](OC(=O)CC(c2ccccc2)N(C)C)C[C@H](OC(C)=O)[C@]2(C)[C@@H]1C[C@@H]1C[C@H](OC(C)=O)C(C)=C([C@@H](OC(C)=O)[C@@H]2OC(C)=O)C1(C)C` (stereo not given in full), the IC50 was 7.2 µg/mL (≈ 10.3 µM) in the test with L1210 and above 10 µg/mL in test [1]. Also, the “vincristine accumulation (% of control)” value in test [2] was 233%; in test [3] it was 841%.
Take `C=C1[C@@H](O)C[C@H](OC(C)=O)[C@@]2(C)[C@@H](OC(C)=O)[C@H](OC(C)=O)C3=C(C)C(=O)C[C@@H]([C@@H](OC(C)=O)[C@H]12)C3(C)C`: the IC50 (in the test with L1210; in test [1]) was above 10 µg/mL in each case. Moreover, the “vincristine accumulation (% of control)” value came to 141% in test [2] and 257% in test [3].
`C=C1[C@@H](O)C[C@H](O)[C@@]2(C)[C@@H](OC(C)=O)[C@H](OC(C)=O)C3=C(C)C(=O)C[C@@]3(C(C)(C)O)[C@@H](OC(C)=O)[C@H]12`: the IC50 (in the test with L1210; in test [1]) was above 10 µg/mL in each case. Moreover, the results for the “vincristine accumulation (% of control)” value in test [2] and in test [3] were 151% and 191%, respectively.
Consider `CC(=O)O[C@H]1C[C@@]2(O)[C@H]3OC[C@]4(OC(C)=O)[C@H](O)C[C@H](OC(C)=O)[C@](C)([C@H]34)[C@@H](OC(C)=O)[C@H](OC(C)=O)C(=C1C)C2(C)C`, for which the IC50 in the test on L1210 was 4.5 µg/mL (≈ 7.37 µM); in test [1] it was 8.8 µg/mL (≈ 14.4 µM). Further, the entries for the “vincristine accumulation (% of control)” value in test [2] and in test [3] were 167% and 234%, respectively.
For `C=C1[C@@H](O)C[C@H](OC(C)=O)[C@@]2(C)[C@@H](OC(C)=O)[C@H](OC(C)=O)C3=C(C)[C@@H](OC(C)=O)C[C@@H]([C@@H](OC(C)=O)[C@H]12)C3(C)C` [DECINNAMOYLTAXININE J], the IC50 (with L1210; in test [1]) was above 10 µg/mL throughout. Besides, the “vincristine accumulation (% of control)” value in test [2] turned out to be 207%; in test [3], 363%.
As to `C=C1[C@@H](O)CC[C@@]2(C)[C@@H](OC(C)=O)[C@H](OC(C)=O)C3=C(C)C(=O)C[C@@H]([C@@H](OC(C)=O)[C@H]12)C3(C)C` [TAXININE A], the IC50 was 8.9 µg/mL (≈ 18.7 µM) with L1210 and above 10 µg/mL in test [1]. Moreover, the results for the “vincristine accumulation (% of control)” value in test [2] and in test [3] were 153% and 461%, respectively.
